Measurements from paper PMC10376691, “Inhibition of Acetylcholinesterase and Amyloid-β Aggregation by Piceatannol and Analogs: Assessing In Vitro and In Vivo Impact on a Murine Model of Scopolamine-Induced Memory Impairment” (Antioxidants, 2023).
Entries after “also recorded” stand apart in the source; their conditions may differ. Where two headings read alike, the source gives them in different places.

Tests used:
[1] = DPPH radical scavenging activity; conditions: 120 μM DPPH in methanol, 37 °C, 20 min
Experimental: DPPH radical scavenging activity was assayed following a previous report, with some modifications. […] DMSO was used instead of a sample solution in the blank group. […] The scavenging activity of the DPPH radical (%) was calculated with the following equation: (△A515blank − △A515sample) ÷ △A515blank × 100%. The IC50 of the DPPH radical scavenging activity of PIC and its analogs or that of Trolox was calculated from each linear equation by three test concentrations and their radical scavenging activities.

recombinant human AChE = target: T1, recombinant human AChE (Homo sapiens, UniProt P22303); assay: AChE inhibitory activity in vitro (acetylthiocholine/DTNB); assay type: biochemical
T1 construct: purchased R&D Systems Inc. (Minneapolis, MN, USA)
T1 sequence (P22303 32-614): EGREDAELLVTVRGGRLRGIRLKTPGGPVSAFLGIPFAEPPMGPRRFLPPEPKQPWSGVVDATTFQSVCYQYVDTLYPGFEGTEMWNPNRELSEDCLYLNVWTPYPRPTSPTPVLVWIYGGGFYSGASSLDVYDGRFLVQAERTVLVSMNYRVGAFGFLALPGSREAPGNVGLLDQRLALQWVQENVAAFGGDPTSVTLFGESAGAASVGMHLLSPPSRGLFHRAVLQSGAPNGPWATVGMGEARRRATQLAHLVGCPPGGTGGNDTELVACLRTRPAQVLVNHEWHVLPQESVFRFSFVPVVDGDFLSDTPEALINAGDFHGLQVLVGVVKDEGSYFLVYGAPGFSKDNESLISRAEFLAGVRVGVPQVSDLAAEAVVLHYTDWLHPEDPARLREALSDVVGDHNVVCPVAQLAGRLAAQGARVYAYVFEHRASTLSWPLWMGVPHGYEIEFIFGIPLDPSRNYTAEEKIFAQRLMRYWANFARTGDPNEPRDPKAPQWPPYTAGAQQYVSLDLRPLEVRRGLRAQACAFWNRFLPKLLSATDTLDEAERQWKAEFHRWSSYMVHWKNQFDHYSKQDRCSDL
Experimental: Commercially synthesized acetylthiocholine iodide was hydrolyzed using AChE to release thiocholine, which was coupled with DTNB to generate the yellowish 5-thio-2-nitrobenzoate for in vitro AChE activity assays. For the AChE inhibitory activity assay, each analog was dissolved in the DMSO, and final concentrations of 100, 200, and 500 μM were used for comparisons. An equal volume of DMSO instead of the sample solution was used in the blank group and expressed as 100% AChE activity. […] AChE inhibition (%) was calculated as follows: [(A405blank − A405sample)/(A405blank)] × 100%.

Aβ peptide (1–42) = target: T2, Aβ peptide (1–42) (Homo sapiens, UniProt P05067); assay: biochemical
T2 construct: The Aβ peptide (1–42) was synthesized and purchased from Kelowna International Scientific Inc; purchased Kelowna International Scientific Inc. (New Taipei, Taiwan); host or cells: chemical synthesis
T2 sequence (P05067 672-713): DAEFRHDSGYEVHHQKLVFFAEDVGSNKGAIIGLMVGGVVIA
Experimental: To prepare the 10 μM Aβ peptide working solution, commercial Aβ peptide was first weighted and dissolved in HFIP to 1 mM. Next, the solvent was evaporated in a hood and then re-dissolved using 100 μL of 60 mM NaOH. It was then diluted to 10 μM working solutions with 50 mM phosphate buffer (pH 7.4, containing 150 mM sodium chloride and 1 mM EDTA), following previous reports. […] DMSO instead of the sample solution was used as the control. The 50 mM phosphate buffer was used instead of the Aβ working solution as the sample blank. […] The IC50 of the inhibition against the Aβ aggregation of PIC and its analogs was calculated from each linear equation using three test concentrations and their inhibition capacities.

SH-SY5Y cells [2] = assay: Neuroprotection against Aβ peptide (25–35)-induced cell deaths (MTT); assay type: cell-based, human; conditions: pre-treatment 1, 2 and 10 μM for 24 h, then 40 μg/mL Aβ (25–35) 24 h; vs control p < 0.05
Experimental: (§1) The human SH-SY5Y neuroblastoma cell lines (CRL-2266, Lot No. 58979771) were purchased from American Type Culture Collection (Manassas, VA, USA) and used as models to investigate PIC and its analogs for neuroprotective activities against Aβ-induced cell deaths and the stimulation of neurite outgrowths. The SH-SY5Y cells were grown in DMEM/F-12 medium supplemented with 10% FBS at 37 °C under a humidified atmosphere and 5% CO2 [41]. […]. The SH-SY5Y cells (10,000 cells/well) were seeded and cultured in a DMEM/F-12 medium containing 10% FBS for 24 h at 37 °C under a humidified atmosphere and 5% CO2. […] The medium was then removed, and 40 μg/mL Aβ peptide (25–35) (dissolved in PBS) or an equal aliquot of PBS was added to the medium for another 24 h culture. The MTT was used to evaluate cell viability, and the absorbance at 570 nm was determined. The DMSO used instead of the sample solution was blank (recognized as 100%), and each treatment was expressed as relative cell viability (%). To study the stimulation of neurite outgrowth, the SH-SY5Y cells (5000 cells/well) were seeded on a 96-well plate pre-coated with poly-L-lysine and then cultured in the DMEM/F-12 medium containing 10% FBS overnight at 37 °C under a humidified atmosphere and 5% CO2. After being removed from the culture medium, each PIC, GNT, RHA, and isoRHA (at a final concentration of 10 μM in the 0.1%DMSO) or 0.1% DMSO (the control) was added to the DMEM/F-12 medium containing 10% FBS and refreshed every three days. On day 3 and day 6, each of the culture plates was photographed using an inverted microscope (ECLIPSE TS100, Nikon Instruments Inc., Tokyo, Japan). The culture medium was removed and washed with PBS, and the cultured cells in each well were fixed with 4% paraformaldehyde. To measure cell viability and quantify the neurite outgrowths of the treated SH-SY5Y in a 96-well plate, the neurite outgrowth staining kit (a two-color fluorescence assay kit) was used, following a previous report or the protocol in the manufacturer’s manual (publication number: MAN0007224), which included a cell membrane-stained fluorescent dye (orange-red fluorescence), a cell viability indicator (green fluorescence), and a reagent for background masking. The fluorescence ratios of Ex555nm/Em565nm and Ex495nm/Em515nm were determined for the neurite outgrowths and the cell viabilities, respectively. The value for the control was recognized as 100%, and each treatment was expressed relative to the control.

[3] = Neurite outgrowth and cell viability, two-color fluorescence assay kit; assay type: cell-based; conditions: human, 3-day or 6-day treatment, green fluorescence, read-out: cell viability relative to the control
Experimental: (§2) The SH-SY5Y cells were grown in DMEM/F-12 medium supplemented with 10% FBS at 37 °C under a humidified atmosphere and 5% CO2 [41]. […] The MTT was used to evaluate cell viability, and the absorbance at 570 nm was determined. The DMSO used instead of the sample solution was blank (recognized as 100%), and each treatment was expressed as relative cell viability (%). To study the stimulation of neurite outgrowth, the SH-SY5Y cells (5000 cells/well) were seeded on a 96-well plate pre-coated with poly-L-lysine and then cultured in the DMEM/F-12 medium containing 10% FBS overnight at 37 °C under a humidified atmosphere and 5% CO2. After being removed from the culture medium, each PIC, GNT, RHA, and isoRHA (at a final concentration of 10 μM in the 0.1%DMSO) or 0.1% DMSO (the control) was added to the DMEM/F-12 medium containing 10% FBS and refreshed every three days. On day 3 and day 6, each of the culture plates was photographed using an inverted microscope (ECLIPSE TS100, Nikon Instruments Inc., Tokyo, Japan). The culture medium was removed and washed with PBS, and the cultured cells in each well were fixed with 4% paraformaldehyde. To measure cell viability and quantify the neurite outgrowths of the treated SH-SY5Y in a 96-well plate, the neurite outgrowth staining kit (a two-color fluorescence assay kit) was used, following a previous report or the protocol in the manufacturer’s manual (publication number: MAN0007224), which included a cell membrane-stained fluorescent dye (orange-red fluorescence), a cell viability indicator (green fluorescence), and a reagent for background masking. […] The value for the control was recognized as 100%, and each treatment was expressed relative to the control.

SH-SY5Y cells [4] = assay: as above; assay type: cell-based; conditions: 10 μM; for stimulation of neurite outgrowths: 3-day or 6-day treatment, orange-red fluorescence, vs control
Experimental: as §2

SH-SY5Y cells [5] = assay: Cytotoxicity on SH-SY5Y cells (MTT); assay type: cell-based; conditions: 1, 2, 5 and 10 μM, MTT (Figure S1)
Experimental: as §1, with “To study the stimulation of neurite outgrowth, the SH-SY5Y cells (5000 cells/well) were seeded on a 96-well plate pre-coated with poly-L-lysine and then cultured in the DMEM/F-12 medium containing 10% FBS overnight at 37 °C under a humidified atmosphere and 5% CO2. After being removed from the culture medium, each PIC, GNT, RHA, and isoRHA (at a final concentration of 10 μM in the 0.1%DMSO) or 0.1% DMSO (the control) was added to the DMEM/F-12 medium containing 10% FBS and refreshed every three days. On day 3 and day 6, each of the culture plates was photographed using an inverted microscope (ECLIPSE TS100, Nikon Instruments Inc., Tokyo, Japan). The culture medium was removed and washed with PBS, and the cultured cells in each well were fixed with 4% paraformaldehyde.” left out, “The value for the control was recognized as 100%, and each treatment was expressed relative to the control.” left out
The following supporting information can be downloaded at: https://www.mdpi.com/article/10.3390/antiox12071362/s1. […] The MTT was used to evaluate cell viability, and the absorbance at 570 nm was determined. The DMSO used instead of the sample solution was blank (recognized as 100%), and each treatment was expressed as relative cell viability (%). […]

[6] = oral administration to rats; cited from earlier work
[7] = rats, cited from earlier work
[8] = tested on: mild to moderate AD patients; conditions: human trial, 52 weeks, cited from earlier work
[9] = tested on: scopolamine-induced amnesiac ICR mice; assay: Passive avoidance test in scopolamine-induced amnesiac ICR mice; assay type: in vivo, mouse; conditions: PIC 50 mg/kg oral once a day, donepezil 5 mg/kg oral, scopolamine 1 mg/kg i.p.
Description: The scopolamine-induced cognitive dysfunctions of amnesiac ICR mice were used to evaluate the effects of PIC pre-treatments on the improvement of learning and memory functions, following previous reports. The animal experimental protocols were reviewed and approved by the Institutional Animal Care and Use Committee, Taipei Medical University (No. LAC-2021-0488). After a two-week acclimation, the mice were randomly divided into four groups (N = 5 for each group). In the first stage, the mice in the PIC group were orally pre-treated with PIC (50 mg/kg) using a feeding tube, once a day from day 1 to day 7; the mice in the blank, control, and donepezil groups were treated with the same volume of distilled water from day 1 to day 7. In the second stage, on day 8 and day 9, the mice in the PIC group and the donepezil group were orally treated once with PIC (50 mg/kg) and donepezil (positive control, 5 mg/kg), respectively, using a feeding tube; the mice in the blank and the control groups were treated with the same volume of distilled water. After 30 min, each mouse was injected intraperitoneally with scopolamine (1 mg/kg, dissolved in PBS), and the mice in the blank group were each injected with an equal volume of PBS instead of the scopolamine solution. Again, 30 min after the scopolamine or PBS injection, a learning and memory evaluation was performed on each mouse with the use of a 2-day passive avoidance test. All the mice were sacrificed at the end of the animal experiments, and the brain tissues of the mice in each group were isolated, weighted, and stored at −80 °C for further use.
A 2-day passive avoidance test, which included an acquisition trial on the first day and a retention trial on the second day, was used to evaluate the learning and memory functions of the scopolamine-induced cognitive dysfunctions of amnesiac ICR mice after PIC and donepezil treatments, following previous reports. A shuttle chamber (AccuScan Instruments Inc., Columbus, OH, USA) with a light box and a dark box separated by a sliding door was used. On day 8, after acclimation around the shuttle chamber for 30 min, each scopolamine-injected or PBS-injected mouse was placed in the light box for the acquisition trial. Once the mouse entered the dark box, the step-through latency (s) was recorded, and the sliding door was closed at the same time. Immediately after, the mouse was administered an electric foot shock (0.3 mA for 3 s) via the wired metal floor and then sent back to the cage. […] The step-through latency (period of time that each mouse stayed in the light box) was recorded again. […] The protein content of the whole brain extracts from the mice was quantified using the BCA protein kit, with bovine serum albumin as the standard protein. […]

[10] = 500 mg once daily up to 1000 mg twice daily

| SMILES | IC50 [1] | IC50 (recombinant human AChE) | IC50 (Aβ peptide (1–42)) | neuroprotection: cell viability against Aβ peptide (25–35)-induced cell deaths (SH-SY5Y cells [2]) | stimulation of neurite outgrowths (SH-SY5Y cells [4]) | cytotoxicity on SH-SY5Y cells (SH-SY5Y cells [5]) | further results |
| --- | --- | --- | --- | --- | --- | --- | --- |
| COc1ccc(/C=C/c2cc(O)cc(O)c2)cc1O [RHA, 3,5,3′-trihydroxy-4′-methoxystilbene] | 57.8 µM | 322 µM | 2.93 µM | elevated cell viabilities | stimulate neurite outgrowths; also recorded: showed stimulated activities toward neurite outgrowths; also recorded: showed stimulatory activity in neurite outgrowths |  | viability at 10 µM ([3]; SH-SY5Y neuroblastoma cells): 80%; total neurite lengths in living SH-SY5Y cells, fold of the control (SH-SY5Y cells [4]; calculated): 1.375 fold |
| Oc1cc(O)cc(C=Cc2c(O)cccc2O)c1 [GNT, 3,5,2′,6′-tetrahydroxystilbene] | 97 µM | 276 µM | 1.76 µM | elevated cell viabilities | not PIC nor GNT; also recorded: not PIC and GNT | insignificant cytotoxicity | viability at 10 µM [3]: 80% |
| Cc1c(C)c2c(c(C)c1O)CCC(C)(C(=O)O)O2 (stereo not shown) [Trolox, 6-hydroxy-2,5,7,8-tetramethylchroman-2-carboxylic acid, reference compound] | 83.1 µM |  |  |  |  |  |  |
| Oc1ccc(C=Cc2cc(O)cc(O)c2)cc1 [RSV, 3,5,4′-trihydroxystilbene] |  |  |  | elevated cell viabilities |  | insignificant cytotoxicity | bioavailability [6]: 29.8%; half-life [6]: 1.48 h; AUC0–8h in plasma, intact compound ([7]; co-administration of PIC and RSV, each at 180 μmol/kg): 4.1 µM·h; AUC0–8h in plasma, intact compound ([7]; intragastric, 90 μmol/kg): 2.0 µM·h; AUC0–8h in plasma, intact compound ([7]; intragastric, 180 μmol/kg): 4.7 µM·h; AUC0–8h in plasma, intact compound ([7]; intragastric, 360 μmol/kg): 8.6 µM·h; crossing of the blood–brain barrier [8, 10]: could cross the blood–brain barrier; safety and tolerance [8, 10]: safe and had good tolerance with adverse effects of nausea, diarrhea, and weight loss; Aβ42 and Aβ40 levels in the cerebrospinal fluid [8]: reduced |
| COc1cc2c(cc1OC)C(=O)C(CC1CCN(Cc3ccccc3)CC1)C2 (stereo not shown) [donepezil, reference compound] |  |  |  |  |  |  | step-through latency, acquisition trial (first day) [9]: no significant difference among the groups; step-through latency, retention trial (second day) ([9]; vs control p < 0.05): longer staying time |
